These are literature values, as cited in patent US20090137477A1, “Treatment of oropharyngeal candidiasis in cancer patients” (BIOALLIANCE PHARMA, priority 2007, published 2009).

The subject of the data set is oropharyngeal candidiasis. The following applies: orally 50 mg/day for 14 days.

Consider `OC(Cn1cncn1)(Cn1cncn1)c1ccc(F)cc1F` [fluconazole], for which the clinical cure was 21% and the clinical response was 53%.
